Experimental data reported in US20240246916A1, “7-NITRO-8-HYDROXYQUINOLINE DERIVATIVES, PREPARATION METHOD THEREFORE AND MEDICAL USE THEREOF” (Jiangsu Yahong Meditech Co., Ltd., priority 2021, published 2024).
Values after ≈ are worked out from the molar mass of the structure shown.

How the values were obtained:
Type in all cases: cell-based
[1] = tested on: Endothelial cell line HUVEC; assay: Inhibitory activity on cells, CellTiter-Glo viability, HUVEC; details: Homo sapiens, 72 hours treatment
Procedure, shortened: (§1)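 HUVEC seeded at 2000, UM-UC-3 and RM-1 at 3000, LNCaP at 5000 cells/well, each in its own medium, 24 h before dosing. Compounds: 8-point 2.5-fold dilutions from 100 μmol, 72 h at 37 °C, 5% CO2. CellTiter-Glo luminescence; IC50 from growth-inhibition curves.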

[2] = tested on: Bladder cancer cell line UM-UC-3; assay: Inhibitory activity on cancer cells, CellTiter-Glo viability, UM-UC-3; details: Homo sapiens, UMUC3, 72 hours treatment
Procedure, shortened: as §1

[3] = tested on: Prostate cancer cell line LNcaP; assay: Inhibitory activity on cancer cells, CellTiter-Glo viability, LNcaP; details: Homo sapiens, 72 hours treatment
Procedure, shortened: as §1

[4] = tested on: Mouse prostate cancer cell line RM1; assay: Inhibitory activity on cancer cells, CellTiter-Glo viability, RM1; details: 72 hours treatment
Procedure, shortened: as §1

[5] = tested on: Escherichia coli (carbapenem-resistant clinical isolate; ATCC25922); assay: MIC by micro broth dilution (CLSI), Escherichia coli; details: for MIC50 / MIC90: ATCC25922, Clinical strain; for MIC50 / MIC90 / MIC: Escherichia coli; for MIC50: read-out: MIC50; for MIC90: read-out: MIC90; for MIC: Standard strain ATCC25922, read-out: MIC
Procedure, shortened: (§2)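 Compounds were dissolved in DMSO and tested at 128 to 0.06 mg/L in cation-adjusted Mueller-Hinton broth. Overnight cultures were set to 0.5 McFarland, diluted 100-fold to a final 10^5 CFU/mL, and incubated at 35±2° C for 20 hours in air. Results were interpreted by CLSI 2019 M100 criteria.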

[6] = tested on: Acinetobacter baumannii (carbapenem-resistant clinical isolates; ATCC19606); assay: MIC by micro broth dilution (CLSI), Acinetobacter baumannii; details: for MIC50 / MIC90: ATCC19606, Clinical strain; for MIC50 / MIC90 / MIC: Acinetobacter baumannii; for MIC50: read-out: MIC50; for MIC90: read-out: MIC90; for MIC: Standard strain ATCC19606, read-out: MIC
Procedure, shortened: as §2

[7] = tested on: Staphylococcus aureus (methicillin-resistant and sensitive clinical isolates; ATCC29213); assay: MIC by micro broth dilution (CLSI), Staphylococcus aureus; details: for MIC50 / MIC90: Clinical strain; for MIC50: read-out: MIC50; for MIC90: read-out: MIC90; for MIC: Standard strain ATCC29213, read-out: MIC
Procedure, shortened: as §2

Row | SMILES | IC50 [1] | IC50 [2] | IC50 [3] | IC50 [4] | MIC50 [5] | MIC90 [5] | MIC [5] | inhibitory effect against Escherichia coli compared with the reference drug nitroxoline ([5]; MIC comparison) | MIC50 [6] | MIC90 [6] | MIC [6] | inhibitory effect against Acinetobacter baumannii compared with the reference drug nitroxoline ([6]; MIC comparison) | MIC50 [7] | MIC90 [7] | MIC [7]
1 | O=[N+]([O-])c1cc(Cl)c2c(Cl)ccnc2c1O [Example 29, 4,5-dichloro-7-nitroquinolin-8-ol] | 6.22 µM | 9.11 µM | 7.03 µM | 6.5 µM | 4 µg/mL (≈ 15.4 µM) | 8 µg/mL (≈ 30.9 µM) | 4 µg/mL (≈ 15.4 µM) | comparable to that of the reference drug nitroxoline | 2 µg/mL (≈ 7.72 µM) | 4 µg/mL (≈ 15.4 µM) | 2 µg/mL (≈ 7.72 µM) | comparable to that of the reference drug nitroxoline | 0.5 µg/mL (≈ 1.93 µM) | 1 µg/mL (≈ 3.86 µM) | 1 µg/mL (≈ 3.86 µM)
2 | CC(=O)N1CCN(c2ccnc3c(O)c([N+](=O)[O-])cc(Cl)c23)CC1 [Example 33, 4-(5-Chloro-8-hydroxy-7-nitroquinolin-4-yl)-1-acetylpiperazine] | 16.9 µM | 50.5 µM | 15 µM | 18 µM | > 128 µg/mL | > 128 µg/mL | > 128 µg/mL | – | > 128 µg/mL | > 128 µg/mL | > 128 µg/mL | – | 32 µg/mL (≈ 91.2 µM) | 32 µg/mL (≈ 91.2 µM) | 32 µg/mL (≈ 91.2 µM)
3 | Cl.O=[N+]([O-])c1cc(Cl)c2c(OCc3ccccc3)ccnc2c1O [Example 67, 4-(benzyloxy)-5-chloro-7-nitroquinolin-8-ol hydrochloride] | 3.23 µM | 9.28 µM | 8.68 µM | 13.2 µM | > 128 µg/mL | > 128 µg/mL | > 128 µg/mL | – | > 128 µg/mL | > 128 µg/mL | > 128 µg/mL | – | 1 µg/mL | 64 µg/mL | 2 µg/mL
4 | O=[N+]([O-])c1cc(Cl)c2c(N3CCCCC3)ccnc2c1O [Example 36, 5-Chloro-7-nitro-4-piperidinylquinolin-8-ol] | 1.48 µM | 2.42 µM | 0.96 µM | 2.81 µM | > 128 µg/mL | > 128 µg/mL | > 128 µg/mL | – | > 128 µg/mL | > 128 µg/mL | > 128 µg/mL | – | 8 µg/mL (≈ 26 µM) | 8 µg/mL (≈ 26 µM) | 8 µg/mL (≈ 26 µM)
5 | O=[N+]([O-])c1cc(Cl)c2c(OC3CCCC3)ccnc2c1O [Example 59, 5-Chloro-4-(cyclopentyloxy)-7-nitroquinolin-8-ol] | 0.78 µM | 1.49 µM | 1.5 µM | 1.46 µM | 128 µg/mL (≈ 415 µM) | 128 µg/mL (≈ 415 µM) | 128 µg/mL (≈ 415 µM) | – | > 128 µg/mL | > 128 µg/mL | 128 µg/mL (≈ 415 µM) | – | 16 µg/mL (≈ 51.8 µM) | 16 µg/mL (≈ 51.8 µM) | 16 µg/mL (≈ 51.8 µM)
6 | O=[N+]([O-])c1cc(Cl)c2c(OCC3CC3)ccnc2c1O [Example 53, 5-Chloro-4-(cyclopropylmethoxy)-7-nitroquinolin-8-ol] | 0.59 µM | 0.86 µM | 1.08 µM | 3.06 µM | 128 µg/mL (≈ 434 µM) | 128 µg/mL (≈ 434 µM) | 128 µg/mL (≈ 434 µM) | – | 128 µg/mL (≈ 434 µM) | 128 µg/mL (≈ 434 µM) | 128 µg/mL (≈ 434 µM) | – | 8 µg/mL (≈ 27.1 µM) | 16 µg/mL (≈ 54.3 µM) | 16 µg/mL (≈ 54.3 µM)
7 | N#Cc1ccnc2c(O)c([N+](=O)[O-])ccc12 [Example 76, 8-hydroxy-7-nitroquinoline-4-carbonitrile] | 18 µM | 38.8 µM | 15.2 µM | 13.3 µM | 32 µg/mL (≈ 149 µM) | 64 µg/mL (≈ 297 µM) | 32 µg/mL (≈ 149 µM) | – | 32 µg/mL (≈ 149 µM) | 64 µg/mL (≈ 297 µM) | 32 µg/mL (≈ 149 µM) | – | 32 µg/mL (≈ 149 µM) | 32 µg/mL (≈ 149 µM) | 32 µg/mL (≈ 149 µM)
8 | O=[N+]([O-])c1cc(F)c2c(N3CCC(C(F)(F)F)CC3)ccnc2c1O [Example 70, 5-Fluoro-7-nitro-4-(4-(trifluoromethyl)piperidin-1-yl)quinolin-8-ol] | 2.78 µM | 5.28 µM | 0.96 µM | 2.62 µM | > 128 µg/mL | > 128 µg/mL | > 128 µg/mL | – | > 128 µg/mL | > 128 µg/mL | > 128 µg/mL | – | 2 µg/mL (≈ 5.57 µM) | 4 µg/mL (≈ 11.1 µM) | 4 µg/mL (≈ 11.1 µM)
9 | O=[N+]([O-])c1cc(Cl)c2c(OCCF)ccnc2c1O [Example 43, 5-Chloro-4-(2-fluoroethoxy)-7-nitroquinolin-8-ol] | 7.54 µM | 12.3 µM | 6.26 µM | 10.6 µM | 128 µg/mL (≈ 447 µM) | 128 µg/mL (≈ 447 µM) | 128 µg/mL (≈ 447 µM) | – | 128 µg/mL (≈ 447 µM) | 128 µg/mL (≈ 447 µM) | 128 µg/mL (≈ 447 µM) | – | 8 µg/mL (≈ 27.9 µM) | 8 µg/mL (≈ 27.9 µM) | 8 µg/mL (≈ 27.9 µM)
10 | CCOc1ccnc2c(O)c([N+](=O)[O-])cc(Cl)c12 [Example 61, 5-Chloro-4-ethoxy-7-nitroquinolin-8-ol] | 2.58 µM | 5.29 µM | 5.22 µM | 4.26 µM | > 128 µg/mL | > 128 µg/mL | > 128 µg/mL | – | > 128 µg/mL | > 128 µg/mL | > 128 µg/mL | – | 16 µg/mL (≈ 59.6 µM) | 32 µg/mL (≈ 119 µM) | 16 µg/mL (≈ 59.6 µM)
11 | O=[N+]([O-])c1cc(Cl)c2c(C3CCCCC3)ccnc2c1O [Example 64, 5-Chloro-4-cyclohexyl-7-nitroquinolin-8-ol] | 0.44 µM | 1.24 µM | 0.22 µM | 0.86 µM | > 128 µg/mL | > 128 µg/mL | > 128 µg/mL | – | > 128 µg/mL | > 128 µg/mL | > 128 µg/mL | – | 0.5 µg/mL (≈ 1.63 µM) | 1 µg/mL (≈ 3.26 µM) | 0.5 µg/mL (≈ 1.63 µM)
12 | O=[N+]([O-])c1cc(Cl)c2c(N3CCC(F)(F)CC3)ccnc2c1O [Example 55, 5-Chloro-4-(4,4-difluoropiperidin-1-yl)-7-nitroquinolin-8-ol] | 0.8 µM | 2.23 µM | 0.25 µM | 2.88 µM | > 128 µg/mL | > 128 µg/mL | > 128 µg/mL | – | > 128 µg/mL | > 128 µg/mL | > 128 µg/mL | – | 4 µg/mL (≈ 11.6 µM) | 4 µg/mL (≈ 11.6 µM) | 4 µg/mL (≈ 11.6 µM)
13 | CC1CCCN(c2ccnc3c(O)c([N+](=O)[O-])cc(Cl)c23)C1 (stereo not drawn) [Example 66, 5-Chloro-4-(3-methylpiperidin-1-yl)-7-nitroquinolin-8-ol] | 4.54 µM | 5.43 µM | 1.36 µM | 4.29 µM | > 128 µg/mL | > 128 µg/mL | > 128 µg/mL | – | > 128 µg/mL | > 128 µg/mL | > 128 µg/mL | – | 1 µg/mL (≈ 3.11 µM) | 1 µg/mL (≈ 3.11 µM) | 1 µg/mL (≈ 3.11 µM)
